Experimental data as given in PubChem BioAssay AID1963970 (Molecular Pharmacology Branch, DTP, NCI, 2024).

Test system: 931267-113-T-J1-PDC multicell spheroid viability
Experiment: Anticancer human tumor 931267-113-T-J1-PDC patient-derived colon adenocarcinoma cell line growth inhibition [PI3K]
Details: for IC50: curve of first compound; for viability, T/C: stronger effect = lower value
Method in brief: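 Tumor cells were combined with HUVEC and MSCs into spheroids, then dosed with PI3K-inhibitor combinations over half-log ranges capped near clinical Cmax or 10 microM.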

[1] = second compound 0.0316 µM, first compound 0.0316 µM
[2] = second compound 0.0316 µM, first compound 0.1 µM
[3] = second compound 0.0316 µM, first compound 0.316 µM
[4] = second compound 0.0316 µM, first compound 1 µM
[5] = second compound 0.0316 µM, first compound 3.16 µM
[6] = second compound 0.0316 µM, first compound 10 µM
[7] = second compound 0.1 µM, first compound 0.0316 µM
[8] = second compound 0.1 µM, first compound 0.1 µM
[9] = second compound 0.1 µM, first compound 0.316 µM
[10] = second compound 0.1 µM, first compound 1 µM
[11] = second compound 0.1 µM, first compound 3.16 µM
[12] = second compound 0.1 µM, first compound 10 µM
[13] = second compound 0.316 µM, first compound 0.0316 µM
[14] = second compound 0.316 µM, first compound 0.1 µM
[15] = second compound 0.316 µM, first compound 0.316 µM
[16] = second compound 0.316 µM, first compound 1 µM
[17] = second compound 0.316 µM, first compound 3.16 µM
[18] = second compound 0.316 µM, first compound 10 µM
[19] = second compound 1 µM, first compound 0.0316 µM
[20] = second compound 1 µM, first compound 0.1 µM
[21] = second compound 1 µM, first compound 0.316 µM
[22] = second compound 1 µM, first compound 1 µM
[23] = second compound 1 µM, first compound 3.16 µM
[24] = second compound 1 µM, first compound 10 µM
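Further: viability read 7 days after compound addition.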

Work on `CC1(C)CCC(CN2CCN(c3ccc(C(=O)NS(=O)(=O)c4ccc(NCC5CCOCC5)c([N+](=O)[O-])c4)c(Oc4cnc5[nH]ccc5c4)c3)CC2)=C(c2ccc(Cl)cc2)C1` + Cc1nc(NC(=O)N2CCCC2C(N)=O)sc1-c1ccnc(C(C)(C)C(F)(F)F)c1 yielded an IC50 (second compound 0.0316 µM) of 6.06 µM, an IC50 (second compound 0.1 µM) of 5.9 µM and an IC50 (second compound 0.316 µM) of 5.31 µM. It also gave an IC50 (second compound 1 µM) of 4.73 µM, an IC50 (second compound 3.16 µM) of 4.44 µM and an IC50 (second compound 10 µM) of 3.48 µM. The viability, T/C [1] was 105%, the viability, T/C [2] was 98.3% and the viability, T/C [3] was 98%. The viability, T/C [4] was 108%, the viability, T/C [5] was 90.3% and the viability, T/C [6] was 19%. For the same compound, the viability, T/C [7] was 95.4%, the viability, T/C [8] was 94% and the viability, T/C [9] was 92%. The viability, T/C [10] was 102%, the viability, T/C [11] was 92.6% and the viability, T/C [12] was 14%. It also gave a viability, T/C [13] of 91.7%, a viability, T/C [14] of 101% and a viability, T/C [15] of 98.5%. The viability, T/C [16] was 84.7%, the viability, T/C [17] was 80.2% and the viability, T/C [18] was 15.7%. It also gave a viability, T/C [19] of 91.7%, a viability, T/C [20] of 78.4% and a viability, T/C [21] of 79.4%. It also gave a viability, T/C [22] of 88.1%, a viability, T/C [23] of 72.5% and a viability, T/C [24] of 8.3%. For the same compound, the viability, T/C (second compound 3.16 µM, first compound 0.0316 µM) was 73.2%, the viability, T/C (second compound 3.16 µM, first compound 0.1 µM) was 72.8% and the viability, T/C (second compound 3.16 µM, first compound 0.316 µM) was 72.5%. It also gave a viability, T/C (second compound 3.16 µM, first compound 1 µM) of 70.6%, a viability, T/C (second compound 3.16 µM, first compound 3.16 µM) of 67.6% and a viability, T/C (second compound 3.16 µM, first compound 10 µM) of 8.18%. It also gave a viability, T/C (second compound 10 µM, first compound 0.0316 µM) of 57.1%, a viability, T/C (second compound 10 µM, first compound 0.1 µM) of 57.9% and a viability, T/C (second compound 10 µM, first compound 0.316 µM) of 50.3%. The viability, T/C (second compound 10 µM, first compound 1 µM) was 58.1%, the viability, T/C (second compound 10 µM, first compound 3.16 µM) was 53.7% and the viability, T/C (second compound 10 µM, first compound 10 µM) was 7.58%.

With `CC(C)NCC(C(=O)N1CCN(c2ncnc3c2C(C)CC3O)CC1)c1ccc(Cl)cc1` (centres undefined) + CC(Nc1ccc2c(c1)OCCn1cc(N3C(=O)OCC3C(F)F)nc1-2)C(N)=O the IC50 (second compound 0.00316 µM) was > 10 µM, the IC50 (second compound 0.01 µM) was > 10 µM and the IC50 (second compound 0.0316 µM) was > 10 µM. The IC50 (second compound 0.1 µM) was > 10 µM, the IC50 (second compound 0.316 µM) was > 10 µM and the IC50 (second compound 1 µM) was > 10 µM. For the same compound, the viability, T/C (second compound 0.00316 µM, first compound 0.0316 µM) was 91%, the viability, T/C (second compound 0.00316 µM, first compound 0.1 µM) was 90.8% and the viability, T/C (second compound 0.00316 µM, first compound 0.316 µM) was 92.9%. The viability, T/C (second compound 0.00316 µM, first compound 1 µM) was 95.5%, the viability, T/C (second compound 0.00316 µM, first compound 3.16 µM) was 86.8% and the viability, T/C (second compound 0.00316 µM, first compound 10 µM) was 67.3%. For the same compound, the viability, T/C (second compound 0.01 µM, first compound 0.0316 µM) was 102%, the viability, T/C (second compound 0.01 µM, first compound 0.1 µM) was 94.3% and the viability, T/C (second compound 0.01 µM, first compound 0.316 µM) was 97.2%. It also gave a viability, T/C (second compound 0.01 µM, first compound 1 µM) of 95.2%, a viability, T/C (second compound 0.01 µM, first compound 3.16 µM) of 83.5% and a viability, T/C (second compound 0.01 µM, first compound 10 µM) of 69.8%. It also gave a viability, T/C [1] of 103%, a viability, T/C [2] of 105% and a viability, T/C [3] of 99.2%. The viability, T/C [4] was 94.8%, the viability, T/C [5] was 96.4% and the viability, T/C [6] was 69.9%. It also gave a viability, T/C [7] of 101%, a viability, T/C [8] of 95.7% and a viability, T/C [9] of 97.9%. The viability, T/C [10] was 96.2%, the viability, T/C [11] was 84.2% and the viability, T/C [12] was 64.7%. The viability, T/C [13] was 85.3%, the viability, T/C [14] was 84.5% and the viability, T/C [15] was 83.7%. The viability, T/C [16] was 85.4%, the viability, T/C [17] was 80.5% and the viability, T/C [18] was 66.7%. For the same compound, the viability, T/C [19] was 73%, the viability, T/C [20] was 75.4% and the viability, T/C [21] was 72.1%. For the same compound, the viability, T/C [22] was 76%, the viability, T/C [23] was 82.9% and the viability, T/C [24] was 59.9%.
